Assay [1] has as its system Mus musculus. The assay can be described thus: Antipapilloma activity was determined after intraperitoneal administration in mice. The class given is functional. As to conditions: ip.
The subject of assay [2] is Mus musculus. The assay can be described thus: Lowest daily intraperitoneal dose causing hypervitaminosis A symptoms was determined in a 2-week period in mice. The format is functional.

SMILES strings stand for the structures.

One may read the ED50 as the dose at which the effect has come halfway, by size or by number of responders. A low value points to an effect at a small dose. Compound `CCOC(=O)/C=C(C)/C=C/C=C(C)/C=C/c1c(C)cc(OC)c(C)c1C` [ETRETINATE] returned a median effective dose (ED50) in assay [1] of 25 mg/kg. In assay [2], the Dose stood at 50 mg/kg.

In turn, `CC1=C(/C=C/C(C)=C/C=C/C(C)=C\C(=O)O)C(C)(C)CCC1` [ISOTRETINOIN] yielded an ED50 in assay [1] of 800 mg/kg. For the same compound, in assay [2], the Dose is 400 mg/kg.

`COc1cc(C)c(/C=C/C(C)=C/C=C(F)/C(C)=C/C(=O)O)c(C)c1C`: in assay [1], the 50% effective dose (ED50) was 11.5 mg/kg. This compound returned a Dose in assay [2] of 25 mg/kg.

With `CC1=C(/C=C/C(C)=C/C=C/C(C)=C/C(=O)O)C(C)(C)CCC1` [TRETINOIN], the 50% effect level in assay [1] (ED50) was put at a dose of 400 mg/kg. For the same compound, the Dose in assay [2] was 80 mg/kg.

With `CCOC(=O)/C=C(C)/C=C/C=C(C)/C=C/c1c(C)sc(C)c1C`, in assay [1], the ED50 worked out at 75 mg/kg. In assay [2], this compound yielded a Dose of 200 mg/kg.

Compound `CCOC(=O)/C=C(C)/C=C/C=C(C)/C=C/c1c(Cl)cc(OC)c(C)c1Cl` returned an ED50 in assay [1] of 6 mg/kg. Also, the Dose in assay [2] was found to be 12 mg/kg.

Take `CCOC(=O)c1ccc(/C=C(\C)c2ccc3c(c2)C(C)(C)CCC3(C)C)cc1` [AROTINOID]: it took a dose of 0.05 mg/kg to reach the 50% effect level in assay [1] (ED50). Moreover, the Dose in assay [2] was determined as 0.1 mg/kg.

The record behind these values is ChEMBL document CHEMBL1122165, “Retinoids at the threshold: their biological significance and therapeutic potential” (J Med Chem, 1982).
